# Like-named read-outs stand apart in the source and are kept apart here.
# Legend:
# [1] = Brain levels (kp and kpu,u) after oral administration; assay type: in vivo, CDI mice; conditions: mice, 20 mpk PO; for Kp at 24 h / Kpu,u (unbound brain-to-plasma ratio): CDI, mouse, brain / plasma, po, 20 mg/kg; for Kp at 24 h: whole brain AUC over 24 h divided by plasma AUC; for Kpu,u (unbound brain-to-plasma ratio) / kpu,u (code): kp corrected with mouse plasma protein binding and mouse brain homogenate binding
# Method: The in vivo total brain to plasma ratio was assessed in CDI mice after oral administration of the compound. Blood was collected at several timepoints up to 24 h, and transferred into plastic micro centrifuge tubes with EDTA-K2 as anticoagulant. Blood samples were centrifuged at 4000 g for 5 minutes at 4° C. to obtain plasma, then immediately frozen and stored at −75±15° C. prior to analysis. Animals were terminally anaesthetized with a rising concentration of CO2 gas at about 1 minute. At selected timepoints, whole brains were removed from the skull, rinsed in cold PBS to remove blood, dried with clean gauze, then frozen in liquid nitrogen and kept at −75±15° C. before analysis. At the time of analysis, brain samples were homogenized with PBS by tissue weight (g) to PBS volume (mL) ratio 1:3. Plasma and brain drug levels were quantified by LC/MS/MS on a AB Sciex Triple Quad 5500+ instrument, after separation on a HALO 160A ES-C18, 2.7 μm 2.1-50 mm column. Quantitation was performed using a calibration curve prepared in blank plasma or blank brain homogenate. The software WinNonlin (Phoenix™) was used for pharmacokinetic analysis from the concentrations versus time data, including the AUCinf and AUClast. The Kp ratio (total brain concentration over total plasma concentration) was calculated as (AUCtot,br)/(AUCtot,pl).
# The unbound brain exposure was assessed as Kpuu, which is the free brain/free plasma concentration ratio (Cu,br/Cu,pl). The Cu,br/Cu,pl ratios were obtained from in vivo total brain to plasma ratios (Ctot,br/Ctot,pl) by using in vitro determined Fu,br and Fu,pl.
# Plasma protein binding and brain homogenate protein binding were measured by equilibrium dialysis in a HTDialysis plate. The dialysis membranes were soaked in ultrapure water for 60 minutes to separate strips, then in 20% ethanol for 20 minutes, finally in dialysis buffer for 20 minutes. The dialysis set up was assembled according to the manufacturer's instruction. Each cell received 150 μL of plasma or brain homogenate spiked with 1 mM of compound, and dialyzed against an equal volume of dialysis buffer (PBS). The dialysis plate was sealed and incubated in an incubator at 37° C. with 5% CO2 at 100 rpm for 6 hours. At the end of incubation, compound concentration was measured in both chambers by LC-MS/MS on a Triple Quad™ 5500 from AB Inc after separation on a XSelect Hss T3 2.5μ (2.1×30 mm) column. Free fraction (Fu) was calculated as (Peak Area Ratio buffer chamber/Peak Area Ratio plasma chamber).
# Kpuu was calculated as (AUCtot,br×Fu,br)/(AUCtot,pl×Fu,pl).
# The below table also assigns each compound a code for kp and kpu,u values: A or B. According to the code. A represents a value of >0.3 and B represents a value of ≤0.3. […] The kpu,u was then calculated upon correcting this kp value with mouse plasma protein binding and mouse brain homogenates binding. A Kpu,u value >0.3 is brain penetrant, and Kpu,u value less than or equal to 0.3 is not brain penetrant. N.D.=not determined. The corresponding raw kp and kpu,u data is also included.
# [2] = Solubility in phosphate buffered solution (PBS, pH 7.4); assay type: physicochemical; conditions: for solubility at 2 h: phosphate buffered solution (PBS), aqueous buffer, kinetic from dmso stock; for increase in solubility (PBS, pH 7.4) compared to Comparative Example 3: relative to Comparative Example 3 (6.7 uM)
# Method: In additional embodiments, the solubility of compounds of the instant disclosure may be determined following known procedures, such as described in Alsenz and Kansy, Advanced Drug Delivery Reviews (2007) 59:546-567, and Wang et al. J Mass Spectrom. (2000) 35:71-76. For example, the kinetic solubility in physiologically relevant media, such as phosphate buffered solution (PBS, pH 7.4) or simulated gastric fluid (SGF), may be measured using serial dilution and two hour incubation period, followed by filtration, and reported in μM by LC-MS/MS. Thermodynamic solubility in physiologically relevant media may be measured by LC-MS/MS, after a twenty-four hour incubation, followed by filtration, and reported in mg/mL. Optimized solubility may be beneficial for manufacturing and further processing of the compound. Furthermore, optimized solubility allows for a more efficient in vitro analysis of the compound, including data collection around the compound's safety, drug-drug interactions, potency, selectivity, metabolism, and permeability. […]
# NLRP3 = target: T1, NLRP3 (Homo sapiens, UniProt Q96P20); assay: Human whole blood (hWB) NLRP3 assay; assay type: cell-based; conditions: LPS priming 1 μg/ml, ATP activation, read-out: hWB IC50 (raw activity data)
# T1 construct: endogenous in cells
# Method: Heparin lithium coated tubes were used to collect blood from volunteers. Blood samples were distributed on 96 well plates using 90 μl per well. Priming was performed by adding 5 μl of LPS (O26:B6; Sigma L-2654) at a final concentration of 1 μg/ml for 4.5 hours in a humidified incubator with 37° C., 5% CO2. Thirty minutes prior to NLRP3 activation, 5 μl of a 20× compound solution or vehicle (2% DMSO) was added to each well and plates were incubated on a shaker (450 rpm) in a humidified incubator with 37° C., 5% CO2. Activation was then performed by adding 3.3 μl of a 31×ATP solution per well. At the end of the 30 minutes stimulation, the plates were centrifuged (800 g, 10 min. room temperature) and the plasma from each well was frozen at −80° C. […] levels in the supernatant were analyzed using a mesoscale discovery assay (MSD K151TUK) according to the manufacturers' instructions. Human whole blood was drawn from healthy volunteers after obtaining written informed consent.
# Table D assigns each compound a code for potency in the human whole blood (hWB) NLRP3 Assay: A or B. According to the code. […] The corresponding raw activity data is also included.
# T1 sequence (Q96P20 whole entry): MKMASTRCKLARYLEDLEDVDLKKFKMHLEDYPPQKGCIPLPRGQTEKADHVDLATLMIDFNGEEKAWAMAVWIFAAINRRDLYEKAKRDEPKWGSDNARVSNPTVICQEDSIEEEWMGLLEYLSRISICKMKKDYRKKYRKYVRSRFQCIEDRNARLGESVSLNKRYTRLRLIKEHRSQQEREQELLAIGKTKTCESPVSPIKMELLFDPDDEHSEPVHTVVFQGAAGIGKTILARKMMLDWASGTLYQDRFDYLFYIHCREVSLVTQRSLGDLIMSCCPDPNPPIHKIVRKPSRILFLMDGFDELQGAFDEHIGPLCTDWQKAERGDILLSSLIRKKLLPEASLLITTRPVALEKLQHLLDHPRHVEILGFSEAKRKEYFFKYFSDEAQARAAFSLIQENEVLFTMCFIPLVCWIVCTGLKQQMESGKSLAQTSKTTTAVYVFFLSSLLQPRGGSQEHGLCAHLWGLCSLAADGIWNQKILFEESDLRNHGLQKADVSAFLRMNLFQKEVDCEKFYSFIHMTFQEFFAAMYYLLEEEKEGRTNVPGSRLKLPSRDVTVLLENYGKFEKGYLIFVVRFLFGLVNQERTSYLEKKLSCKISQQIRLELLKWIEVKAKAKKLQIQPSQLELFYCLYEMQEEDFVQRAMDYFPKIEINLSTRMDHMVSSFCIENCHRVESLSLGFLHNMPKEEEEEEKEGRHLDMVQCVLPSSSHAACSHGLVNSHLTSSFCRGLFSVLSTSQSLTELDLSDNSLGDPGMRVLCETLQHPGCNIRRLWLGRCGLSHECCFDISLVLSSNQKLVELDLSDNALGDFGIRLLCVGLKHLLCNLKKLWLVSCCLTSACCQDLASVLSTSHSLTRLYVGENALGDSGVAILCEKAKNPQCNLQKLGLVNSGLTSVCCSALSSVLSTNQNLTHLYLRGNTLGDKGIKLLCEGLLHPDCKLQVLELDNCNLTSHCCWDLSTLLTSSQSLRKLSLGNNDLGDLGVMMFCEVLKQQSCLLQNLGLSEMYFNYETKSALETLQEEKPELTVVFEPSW
SMILES,Kp at 24 h ([1]; read-out: kp (code)),Kp at 24 h ([1]; read-out: kp (raw)),"Kpu,u (unbound brain-to-plasma ratio) [1]","kpu,u (code) [1]",solubility at 2 h [2] [µM],"increase in solubility (PBS, pH 7.4) compared to Comparative Example 3 [2] [fold]",IC50 (NLRP3) [nM]
"CC1(C)C[C@@H](Nc2nnc(-c3ccc(OC(F)F)cc3O)c3ccncc23)CO1 (single isomer, unassigned) [Compound 9B*]",≤ 0.3,0.24,0.52,A (A represents a value of >0.3),45,7,61
"Cc1cc(O)c(-c2nnc(N[C@H]3COC(C)(C)C3)c3cnccc23)c(F)c1 (single isomer, unassigned) [Compound 21*]",> 0.3,0.3,0.76,A (A represents a value of >0.3),250,37,460
"Cc1cc(C)c(-c2nnc(N[C@H]3COC(C)(C)C3)c3cnccc23)c(O)c1 (single isomer, unassigned) [Compound 24*]",≤ 0.3,0.05,,,290,43,330
"Cc1cc(O)c(-c2nnc(N[C@H]3COC(C)(C)C3)c3cnccc23)c(Cl)c1 (single isomer, unassigned) [Compound 26*]",≤ 0.3,0.1,0.17,B (B represents a value of ≤0.3),280,42,900
"Cc1ccc(-c2nnc(N[C@H]3COC(C)(C)C3)c3cnccc23)c(O)c1 [Compound 5, (R)-2-(4-((5,5-dimethyltetrahydrofuran-3-yl)amino)pyrido[3,4-d]pyridazin-1-yl)-5-methylphenol]",> 0.3,0.44,0.94,A (A represents a value of >0.3),180,27,220

# Reference: patent US12331048B2, “Pyrido-[3,4-d]pyridazine amine derivatives useful as NLRP3 inhibitors” (Ventus Therapeutics U.S., Inc., priority 2022, dated 2025)
